Values of other authors in patent publication US20100227030A1, “METHOD FOR THE CONSERVATION OF A PLANT MATERIAL” (priority 2007, published 2010).

Conditions: at 20° C

OC[C@H]1O[C@H](O[C@H]2O[C@H](CO)[C@@H](O)[C@H](O)[C@H]2O)[C@H](O)[C@@H](O)[C@@H]1O [trehalose]
Maximal solubility: 68.9 g/100 g water
